Test results published in patent US20210030870A1, “MODULATION OF P62 AND STING ACTIVITY” (priority 2018, published 2021).
Entries after “also recorded” stand apart in the source; their conditions may differ.

Columns and labels:
STING-pathway [1] = assay: Functional type I IFN assay (HEK-Blue IFN-α/β reporter) on supernatants of peptide-pretreated PBMCs; format: cell-based, human; conditions: for type I IFN: PBMCs, peptide pre-activation (25 μg/ml), co-stimulation with HT-DNA
STING-pathway [2] = assay: Functional type I IFN assay on supernatants of peptide-pretreated THP1 cells; format: cell-based, human; conditions: peptide pre-activation (10 μg/ml), co-stimulation with HT-DNA
DNA-cGAS STING pathway [3] = assay: CXCL10 ELISA, THP1 cells with PEP302; format: cell-based, human; conditions: DNA stimulation
Experimental: Protein levels of the cytokines CXCL10 and TNF-α in supernatants, were measured using ELISA kits from R and D Systems (CXCL10; DY266) and (TNF-α; DY210) following the manufacturer's instructions.

STING = assay: Western blotting of THP1 cells treated with PEP302; format: cell-based, human
Experimental: Whole-cell extracts or immunoprecipitation samples were analyzed by immunoblotting. Samples were diluted in XT sample buffer and XT reducing agent and ran on a SDS—PAGE (Criterion™ TGX™). Trans-Blot Turbo™ Transfer System was used for the transfer of proteins to PVDF membranes (all reagents Bio-Rad). The membrane was blocked in 5% Difco™ skim milk (BD) or 5% bovine serum albumin (BSA) (Sigma). For detection of STING dimerization, samples were prepared for electrophoresis using non-reducing RIPA lysis buffer with 0.2% SDS and complete mini inhibitor (Sigma). The antibodies used for immunoblotting were as follows: rabbit anti-pSTING (S366) (Cell Signaling Technology, #85735), rabbit anti-pTBK1 (Ser172) (Cell Signaling, D52C2/#5483), rabbit anti-phospho p62 (Cell Signalling), Guinea pig anti-p62 (Progen), rabbit anti-STING (Cell Signalling) and mouse anti-b-actin (Abcam, AC-15/ab49900).

DNA-cGAS STING pathway [4] = assay: Type I IFN bioassay, THP1 cells stimulated with DNA or polyIC with/without PEP302; format: cell-based, human
Experimental: Bioactive human type I IFN was measured on cell supernatants by use of HEK-Blue™ IFN-a/b cells as reporter cells according to the manufacturer instructions (InvivoGen).

STING-pathway [5] = assay: CXCL10 ELISA on supernatants of peptide-pretreated PMA-differentiated THP1 cells; format: cell-based; conditions: human PMA-differentiated THP1 cells, peptide 10 μg/ml, HT-DNA treatment; listed as SEQ ID NO: 9
STING-pathway [6] = assay: TNF-α ELISA on supernatants of peptide-pretreated PBMCs stimulated with STING agonists; format: cell-based; conditions: human primary PBMCs, peptide pre-activation (25 μg/ml, 1 hour), co-stimulation with cGAMP or HT-DNA, supernatants after 20 hours
[7] = THP1 cells treated with peptide
[8] = THP1 cells, after DNA and cGAMP stimulation, Western blotting

With “SLTVKAYLLGKEDAAREIRRGRKKRRQRRRPQ (listed as Homo sapiens) [PEP300, N-terminal fragment peptide of human P62 C-terminally conjugated to TAT]” the “type I IFN” value (STING-pathway [1]) was “significant suppression”, the “type I IFN” value (STING-pathway [1]; listed as SEQ ID NO: 8) was “capable of reducing” and the “type I IFN” value (STING-pathway [2]) was “significant suppression”. For the same sequence, the “type I IFN” value (STING-pathway [2]; listed as SEQ ID NO: 8) was “capable of reducing”.

With “PGPCERLLSRVAALFPALRP GRKKRRQRRRPQ (PGPCERLLSRVAALFPALRPGRKKRRQRRRPQ; listed as Homo sapiens) [PEP302, PB1 domain fragment peptide of human P62]” the “DNA-STING-induced CXCL10 production” value (DNA-cGAS STING pathway [3]) was “reduces; also recorded: can inhibit”, the STING dimerization (STING; [7]) was “may induce” and the “autophagy (LC3 turnover)” value (STING; [7]) was “may induce; also recorded: seems to constitutively induce”. The p62 dimerization (STING; [7]) was “may induce; also recorded: induce p62 dimerization”, the “ubiquitination of STING” value (STING; THP1 cells treated with peptide alone) was “may also induce; also recorded: potentially ubiquitination of STING” and the “phosphorylation of TBK1” value (STING; [8]) was “significantly reduced; also recorded: inhibit/reduce”. For the same sequence, the “phosphorylation of p62” value (STING; [8]) was “significantly reduced; also recorded: inhibit/reduce”, the “phosphorylation of STING” value (STING; THP1 cells, after DNA stimulation, Western blotting) was “can inhibit; also recorded: may inhibit” and the “phosphorylation of STING (phospho-STING)” value (STING; THP1 cells, after cGAMP stimulation, Western blotting) was “significantly reduce; also recorded: may inhibit”. The “pathway specificity of type I IFN inhibition (DNA versus polyIC stimulation)” value (DNA-cGAS STING pathway [4]; THP1 cells stimulated with DNA or polyIC with/without peptide) was “may specifically target the DNA-cGAS STING pathway and not the polylC pathway” and the “DNA-activated IFN (type I IFN bioassay)” value (DNA-cGAS STING pathway [4]; THP1 cells, DNA stimulation) was “reduces”.

“EELTMAMSYVKDDIFRIYIKGRKKRRQRRRPQ (listed as Homo sapiens) [PEP305, PB1 domain fragment peptide of human P62 C-terminally conjugated to TAT]” was tested, and the CXCL10 expression (STING-pathway [5]) was “very efficient in increasing; also recorded: increase”, the “type I Interferon” value (STING-pathway [1]; human primary PBMCs, peptide pre-activation (25 μg/ml, 1 hour), co-stimulation with cGAMP or HT-DNA) was “suppress” and the “cytokine response of TNF-alpha” value (STING-pathway [6]) was “enhance”. The “cytokine response of TNF-alpha” value (STING-pathway [6]; listed as SEQ ID NO: 9) was “very efficient in increasing”.

“DLCSVCEGKGLHRGHTKLAFGRKKRRQRRRPQ (listed as Homo sapiens) [PEP307, ZZ domain fragment peptide of human P62 C-terminally conjugated to TAT]” was tested, and the “type I IFN” value (STING-pathway [1]) was “significant suppression”, the “type I IFN” value (STING-pathway [1]; listed as SEQ ID NO: 10) was “capable of reducing” and the “type I IFN” value (STING-pathway [2]) was “significant suppression”. The “type I IFN” value (STING-pathway [2]; listed as SEQ ID NO: 10) was “capable of reducing”.
